Calls of active or inactive are those of the source. How the calls were made is not given here.
System: CCRIS mutagenicity, Ames/micronucleus/aberration tests
Assay: CCRIS mutagenicity studies
[1] = Test System: AMES SALMONELLA TYPHIMURIUM, Strain/Indicator: TA97, Metabolic Activation: NONE, Method: PREINCUBATION
[2] = Test System: AMES SALMONELLA TYPHIMURIUM, Strain/Indicator: TA98, Metabolic Activation: NONE, Method: PREINCUBATION
[3] = Test System: AMES SALMONELLA TYPHIMURIUM, Strain/Indicator: TA100, Metabolic Activation: NONE, Method: PREINCUBATION
[4] = Test System: AMES SALMONELLA TYPHIMURIUM, Strain/Indicator: TA100, Metabolic Activation: NONE, Method: STANDARD PLATE
[5] = Test System: AMES SALMONELLA TYPHIMURIUM, Strain/Indicator: TA97, Metabolic Activation: NONE, Method: STANDARD PLATE
[6] = Test System: AMES SALMONELLA TYPHIMURIUM, Strain/Indicator: TA98, Metabolic Activation: NONE, Method: STANDARD PLATE
[7] = Test System: AMES SALMONELLA TYPHIMURIUM, Strain/Indicator: TA98, Metabolic Activation: RAT, LIVER, S-9, AROCLOR 1254, Method: STANDARD PLATE
[8] = Test System: AMES SALMONELLA TYPHIMURIUM, Strain/Indicator: TA100, Metabolic Activation: RAT, LIVER, S-9, AROCLOR 1254, Method: STANDARD PLATE
[9] = Test System: AMES SALMONELLA TYPHIMURIUM, Strain/Indicator: TA102, Metabolic Activation: NONE, Method: STANDARD PLATE
[10] = Test System: AMES SALMONELLA TYPHIMURIUM, Strain/Indicator: TA102, Metabolic Activation: RAT, LIVER, S-9, AROCLOR 1254, Method: STANDARD PLATE
[11] = Test System: AMES SALMONELLA TYPHIMURIUM, Strain/Indicator: TA1535, Metabolic Activation: NONE, Method: STANDARD PLATE

CC(=O)c1ccncc1
mutagenic call (End Point: IN VITRO CHROMOSOMAL ABERRATIONS, Test System: CHO-LB CELLS, Metabolic Activation: RAT, LIVER, S-9, AROCLOR 1254): active; positive
mutagenic call (Test System: AMES SALMONELLA TYPHIMURIUM, Strain/Indicator: TA97, Metabolic Activation: HAMSTER, LIVER, S-9, AROCLOR 1254 (10 OR 30%), Method: PREINCUBATION): inactive; negative
mutagenic call [1]: inactive; negative
mutagenic call (Test System: AMES SALMONELLA TYPHIMURIUM, Strain/Indicator: TA97, Metabolic Activation: RAT, LIVER, S-9, AROCLOR 1254 (10 OR 30%), Method: PREINCUBATION): inactive; negative
mutagenic call (Test System: AMES SALMONELLA TYPHIMURIUM, Strain/Indicator: TA98, Metabolic Activation: HAMSTER, LIVER, S-9, AROCLOR 1254 (10 OR 30%), Method: PREINCUBATION): inactive; negative
mutagenic call [2]: inactive; negative
mutagenic call (Test System: AMES SALMONELLA TYPHIMURIUM, Strain/Indicator: TA98, Metabolic Activation: RAT, LIVER, S-9, AROCLOR 1254 (10 OR 30%), Method: PREINCUBATION): inactive; negative
mutagenic call (Test System: AMES SALMONELLA TYPHIMURIUM, Strain/Indicator: TA100, Metabolic Activation: HAMSTER, LIVER, S-9, AROCLOR 1254 (10 OR 30%), Method: PREINCUBATION): inactive; negative
mutagenic call [3]: inactive; negative
mutagenic call (Test System: AMES SALMONELLA TYPHIMURIUM, Strain/Indicator: TA100, Metabolic Activation: RAT, LIVER, S-9, AROCLOR 1254 (10 OR 30%), Method: PREINCUBATION): inactive; negative
mutagenic call (Test System: AMES SALMONELLA TYPHIMURIUM, Strain/Indicator: TA1535, Metabolic Activation: HAMSTER, LIVER, S-9, AROCLOR 1254 (10 OR 30%), Method: PREINCUBATION): inactive; negative
mutagenic call (Test System: AMES SALMONELLA TYPHIMURIUM, Strain/Indicator: TA1535, Metabolic Activation: NONE, Method: PREINCUBATION): inactive; negative
mutagenic call (Test System: AMES SALMONELLA TYPHIMURIUM, Strain/Indicator: TA1535, Metabolic Activation: RAT, LIVER, S-9, AROCLOR 1254 (10 OR 30%), Method: PREINCUBATION): inactive; negative

O=CNc1ccc(Oc2c(Cl)cc(Cl)cc2Cl)cc1
mutagenic call [4]: inactive; negative
mutagenic call (Test System: AMES SALMONELLA TYPHIMURIUM, Strain/Indicator: TA100, Metabolic Activation: RAT, LIVER, S-9, KANECLOR 500, Method: STANDARD PLATE): active; positive

COC(=O)c1ccccc1N
mutagenic call [1]: inactive; negative
mutagenic call (Test System: AMES SALMONELLA TYPHIMURIUM, Strain/Indicator: TA97, Metabolic Activation: RAT, LIVER, S-9, AROCLOR 1254, Method: PREINCUBATION): inactive; negative
mutagenic call [2]: inactive; negative
mutagenic call (Test System: AMES SALMONELLA TYPHIMURIUM, Strain/Indicator: TA98, Metabolic Activation: S-9, Method: PREINCUBATION): inactive; negative
mutagenic call [3]: inactive; negative
mutagenic call (Test System: AMES SALMONELLA TYPHIMURIUM, Strain/Indicator: TA100, Metabolic Activation: S-9, Method: PREINCUBATION): inactive; negative
mutagenic call (Test System: AMES SALMONELLA TYPHIMURIUM, Strain/Indicator: TA102, Metabolic Activation: NONE, Method: PREINCUBATION): inactive; negative
mutagenic call (Test System: AMES SALMONELLA TYPHIMURIUM, Strain/Indicator: TA102, Metabolic Activation: RAT, LIVER, S-9, AROCLOR 1254, Method: PREINCUBATION): inactive; negative
mutagenic call (Test System: UDS RODENT HEPATOCYTES, Strain/Indicator: THY INCORP (NON-S-PHASE), Metabolic Activation: NONE, Method: AUTORADIOGRAPHY): inactive; negative

CCOC(=O)c1[nH]c2ccccc2c1N=Cc1ccc(O)cc1
mutagenic call [5]: active; positive
mutagenic call (Test System: AMES SALMONELLA TYPHIMURIUM, Strain/Indicator: TA97, Metabolic Activation: RAT, LIVER, S-9, AROCLOR 1254, Method: STANDARD PLATE): inactive; negative
mutagenic call [6]: inactive; negative
mutagenic call [7]: inactive; negative
mutagenic call [4]: inactive; negative
mutagenic call [8]: inactive; negative
mutagenic call [9]: inactive; negative
mutagenic call [10]: inactive; negative

NC(=O)c1csc([N+](=O)[O-])c1
mutagenic call [6]: active; positive
mutagenic call [4]: active; positive

O=C1c2ccc(O)cc2C(=O)c2ccc(O)cc21
mutagenic call [6]: inactive; negative
mutagenic call [7]: inactive; negative
mutagenic call [4]: inactive; negative
mutagenic call [8]: inactive; negative
mutagenic call [11]: inactive; negative
mutagenic call (Test System: AMES SALMONELLA TYPHIMURIUM, Strain/Indicator: TA1535, Metabolic Activation: RAT, LIVER, S-9, AROCLOR 1254, Method: STANDARD PLATE): inactive; negative
mutagenic call (Test System: AMES SALMONELLA TYPHIMURIUM, Strain/Indicator: TA1538, Metabolic Activation: NONE, Method: STANDARD PLATE): inactive; negative
mutagenic call (Test System: AMES SALMONELLA TYPHIMURIUM, Strain/Indicator: TA1538, Metabolic Activation: RAT, LIVER, S-9, AROCLOR 1254, Method: STANDARD PLATE): inactive; negative

O=[N+]([O-])c1cc2c(cc3ccc4cccc5ccc2c3c45)o1
mutagenic call (Test System: AMES SALMONELLA TYPHIMURIUM, Strain/Indicator: TA98(NR), Metabolic Activation: NONE, Method: STANDARD PLATE): active; positive
mutagenic call (Test System: AMES SALMONELLA TYPHIMURIUM, Strain/Indicator: TA98(NR), Metabolic Activation: RAT, LIVER, S-9, AROCLOR 1254, Method: STANDARD PLATE): active; positive
mutagenic call [6]: active; positive
mutagenic call [7]: active; positive

Cc1c(O)cc2c(c1O)C(=O)c1cccc(O)c1C2=O
mutagenic call [2]: inactive; negative
mutagenic call (Test System: AMES SALMONELLA TYPHIMURIUM, Strain/Indicator: TA98, Metabolic Activation: RAT, LIVER, S-9, PCB, Method: PREINCUBATION): active; positive
mutagenic call [3]: inactive; negative
mutagenic call (Test System: AMES SALMONELLA TYPHIMURIUM, Strain/Indicator: TA100, Metabolic Activation: RAT, LIVER, S-9, PCB, Method: PREINCUBATION): active; positive

CC1=C2C(=CO[C@H](C)[C@H]2C)C(=O)C(C(=O)O)=C1O
mutagenic call (End Point: In vivo chromosomal aberrations, Test System: Bone marrow cells, Species: Mouse, Strain/Sex: Balb/C / Male, Route: Intraperitoneal): active; positive (structural changes)
mutagenic call [5]: inactive; negative
mutagenic call (Test System: AMES SALMONELLA TYPHIMURIUM, Strain/Indicator: TA97, Metabolic Activation: RAT LIVER S-9, AROCLOR 1254, Method: STANDARD PLATE): inactive; negative
mutagenic call [6]: inactive; negative
mutagenic call (Test System: AMES SALMONELLA TYPHIMURIUM, Strain/Indicator: TA98, Metabolic Activation: RAT LIVER S-9, AROCLOR 1254, Method: STANDARD PLATE): inactive; negative
mutagenic call [3]: inactive; negative
mutagenic call [4]: inactive; negative
mutagenic call (Test System: AMES SALMONELLA TYPHIMURIUM, Strain/Indicator: TA100, Metabolic Activation: RAT LIVER S-9, AROCLOR 1254, Method: STANDARD PLATE): inactive; negative
mutagenic call (Test System: AMES SALMONELLA TYPHIMURIUM, Strain/Indicator: TA100, Metabolic Activation: RAT, LIVER, S-9, PHENOBARBITAL, Method: PREINCUBATION): inactive; negative
mutagenic call [9]: inactive; negative
mutagenic call [10]: inactive; negative
mutagenic call [11]: inactive; negative
mutagenic call (Test System: AMES SALMONELLA TYPHIMURIUM, Strain/Indicator: TA1535, Metabolic Activation: RAT LIVER S-9, AROCLOR 1254, Method: STANDARD PLATE): inactive; negative
mutagenic call (Test System: AMES SALMONELLA TYPHIMURIUM, Strain/Indicator: TA1537, Metabolic Activation: NONE, Method: STANDARD PLATE): inactive; negative
mutagenic call (Test System: AMES SALMONELLA TYPHIMURIUM, Strain/Indicator: TA1537, Metabolic Activation: RAT LIVER S-9, AROCLOR 1254, Method: STANDARD PLATE): inactive; negative

NCCc1cc(O)c(O)cc1O
mutagenic call [9]: active; positive
mutagenic call (Test System: AMES SALMONELLA TYPHIMURIUM, Strain/Indicator: TA104, Metabolic Activation: NONE, Method: STANDARD PLATE): active; positive

From PubChem BioAssay AID1259407 (Chemical Carcinogenesis Research Information System (CCRIS), 2018)
